# Experimental data published in publication PMC7915519, “Zinc(II) Complexes of Amino Acids as New Active Ingredients for Anti-Acne Dermatological Preparations” (International Journal of Molecular Sciences, 2021).
# Legend:
# [1] = system: human skin fibroblasts (1BR.3.N cell line); assay: Cytotoxicity, Presto Blue cell viability assay on human skin fibroblasts; assay type: cell-based; conditions: 1BR.3.N human skin fibroblasts, 24 h incubation, Hill Equation, read-out: IC50 Values (Mean ± SD) Fibroblasts
# Procedure: The cytotoxicity test was conducted on a 1BR.3.N cell line (human skin fibroblasts, ECACC, co. 90020508) and human epidermal keratinocytes, neonatal (Millipore, co. SCCE020) purchased from Sigma-Aldrich (Merck, Darmstadt, Germany). […] The cells were maintained at 37 °C and 5% CO2 in a humidified incubator. Next, the medium was changed into a starvation medium for the 1BR.3.N cell line (EpiGROTM human epidermal keratinocyte complete media kit for keratinocytes) with a variable final concentration of five analyzed complexes (ZnGlu (1), ZnGly (2), ZnHis (3), ZnPro (4), ZnTrp (6)) and two controls, ZnPCA and ZnCl2.
# [2] = system: human epidermal keratinocytes, neonatal; assay: Cytotoxicity, Presto Blue cell viability assay on human epidermal keratinocytes; assay type: cell-based; conditions: 24 h incubation, Hill Equation, read-out: IC50 Values (Mean ± SD) Keratinocytes
# Procedure: The cytotoxicity test was conducted on a 1BR.3.N cell line (human skin fibroblasts, ECACC, co. 90020508) and human epidermal keratinocytes, neonatal (Millipore, co. SCCE020) purchased from Sigma-Aldrich (Merck, Darmstadt, Germany). The same procedure was conducted for keratinocytes in EpiGROTM human epidermal keratinocyte complete media with 6 mM L-glutamine, 0.405 EpiFactor P, 1.0 μM epinephrine, 0.5 ng/mL rh TGF-α, 100 ng/mL hydrocortisone hemisuccinate, 5 μg/mL rh insulin and apo-transferrin. The cells were maintained at 37 °C and 5% CO2 in a humidified incubator. Next, the medium was changed into a starvation medium for the 1BR.3.N cell line (EpiGROTM human epidermal keratinocyte complete media kit for keratinocytes) with a variable final concentration of five analyzed complexes (ZnGlu (1), ZnGly (2), ZnHis (3), ZnPro (4), ZnTrp (6)) and two controls, ZnPCA and ZnCl2.
# L929 fibroblast cultures = system: L929 fibroblast cultures; set-up: method as in PMID 28246541; conditions: murine model; read-out: IC50 against L929 fibroblast cultures; cited from earlier work
# HaCaT keratinocytes = conditions: concentration equal to 100 μM; cited from earlier work
# [3] = system: Cutibacterium acnes ATCC 6919; assay: Antimicrobial activity by microdilution method (CLSI M11), anaerobic conditions; assay type: cell-based; conditions: C. acnes ATCC 6919, 48 h at 37 °C, tested up to 500 mg/L
# Procedure: The antimicrobial potential of zinc complexes against the anaerobic strain Cutibacterium acnes ATCC 6919 was tested by the microdilution method in Brucella broth supplemented with hemin, vitamin K1 and laked horse blood according to the CLSI document M11 (9th Edition) for antimicrobial susceptibility testing of anaerobic bacteria. Antimicrobial activity testing assays were conducted in 96-well cell culture plates in anaerobic conditions. The antimicrobial properties of zinc complexes were tested up to 500 mg/L. […] The bacterial suspension and dilutions of the tested compounds were combined in equal volumes to achieve the expected concentrations of zinc amino acid complexes. Samples as well as adequate abiotic and biotic controls were incubated for 48 h at 37 °C after being placed in 96-well cell culture plates in anaerobic jars, in which anaerobic conditions were formed using Anoxomat Mark II CTS (Mart Microbiology […], the Netherlands). The minimum inhibitory concentration (MIC), expressed in mg/L, was determined as the lowest concentration of zinc amino acid complexes at which no growth of C. acnes was observed. […] The Brucella agar plates were incubated for 48 h at 37 °C after placing the plates in anaerobic jars, in which anaerobic conditions were created.
# [4] = system: human lung fibroblast (MRC-5) cell line; set-up: method as in PMID 30594780; conditions: concentrations up to 100 µM; cited from earlier work
Compound,IC50 [1],IC50 [2],IC50 (L929 fibroblast cultures),toxicity to HaCaT keratinocytes (HaCaT keratinocytes),MIC Value [3],toxic effects on MRC-5 cell line [4]
[Cl-].[Cl-].[Zn+2] [ZnCl2],163 ± 4.1 µM,127 µM,0.928 µM,non-toxic,,
NCC(=O)[O-].NCC(=O)[O-].[Zn+2] [ZnGly (2)],120 ± 4.61 µM,138 ± 8.11 µM,,,100 µg/mL,
"O=C1CCC(C(=O)[O-])N1.O=C1CCC(C(=O)[O-])N1.[Zn+2] (centres unmarked) [ZnPCA, zinc 2-pirrolidone 5-carboxylate]",172 ± 9.69 µM,102 ± 2.07 µM,,,175 µg/mL,
copper(II) complex with 5-hydroxytryptophan,,,,,,no toxic effects
